Measurements: patent US5834461A, “Tricyclic benzazepine vasopressin antagonists” (American Cyanamid Company, priority 1997, dated 1998)

What was measured:
[1] = target: T1, vasopressin V1 receptor subtype in human platelet membranes (Homo sapiens, UniProt P37288); assay: Binding to Vasopressin V1 Receptor Subtype in Human Platelet Membranes; conditions: for IC50: human platelet V1 (*)
T1 construct: tissue Hudson Valley Blood Services; host or cells: human blood platelets (frozen platelet rich plasma)
T1 sequence (P37288 whole entry): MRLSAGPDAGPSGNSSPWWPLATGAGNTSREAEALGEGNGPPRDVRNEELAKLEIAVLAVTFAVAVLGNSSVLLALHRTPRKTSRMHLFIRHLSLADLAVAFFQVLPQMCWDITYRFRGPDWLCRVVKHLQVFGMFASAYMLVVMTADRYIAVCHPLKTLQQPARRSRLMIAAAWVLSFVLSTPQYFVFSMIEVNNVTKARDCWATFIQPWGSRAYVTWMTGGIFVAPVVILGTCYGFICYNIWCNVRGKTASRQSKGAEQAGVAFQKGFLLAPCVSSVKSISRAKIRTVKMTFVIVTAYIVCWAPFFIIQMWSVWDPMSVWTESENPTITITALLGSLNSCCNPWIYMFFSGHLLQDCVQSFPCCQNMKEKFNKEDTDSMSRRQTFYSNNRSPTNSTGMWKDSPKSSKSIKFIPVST
Method: (a) Platelet Membrane Preparation:
Frozen platelet rich plasma (PRP), received from the Hudson Valley Blood Services, are thawed to room temperature. (Platelet Source: Hudson Valley Blood Services, Westchester Medical Center, Valhalla, N.Y.). The tubes containing the PRP are centrifuged at 16,000×g for 10 min. at 4° C. and the supernatant fluid discarded. The platelets resuspended in an equal volume of 50.0 mM Tris.HCl, pH 7.5 containing 120 mM NaCl and 20.0 mM EDTA. The suspension is recentrifuged at 16,000×g for 10 min. This washing step is repeated one more time. The wash discarded and the lysed pellets homogenized in low ionic strength buffer of Tris.HCl, 5.0 mM, pH 7.5 containing 5.0 mM EDTA. The homogenate is centrifuged at 39,000×g for 10 min. The resulting pellet is resuspended in Tris.HCl buffer, 70.0 mM, pH 7.5 and recentrifuged at 39,000×g for 10 min. The final pellet is resuspended in 50.0 mM Tris.HCl buffer pH 7.4 containing 120 mM NaCl and 5.0 mM KCl to give 1.0-2.0 mg protein per ml of suspension.
(b) Binding to Vasopressin V1 Receptor Subtype in Human Platelet Membranes:
In wells of a 96 well format microtiter plate, add 100 μl of 50.0 mM Tris.HCl buffer containing 0.2% BSA and a mixture of protease inhibitors (aprotinin, leupeptin etc.). Then add 20 μl of [^3 H]Ligand (Manning or Arg^8 Vasopressin), to give final concentrations ranging from 0.01 to 10.0 nM. Initiate the binding by adding 80.0 μl of platelet suspension (approx. 100 μg protein). Mix all reagents by pipetting the mixture up and down a few times. Non specific binding is measured in the presence of 1.0 μM of unlabeled ligand (Manning or Arg^8 Vasopressin). Let the mixture stand undisturbed at room temperature for ninety (90) min. Upon this time, rapidly filter off the incubate under vacuum suction over GF/B filters, using a Brandel Harvester. The radioactivity caught on the filter disks is determined by the addition of liquid scintillant and counting in a liquid scintillator.

[2] = target: T2, human V2 vasopressin receptor (Homo sapiens, UniProt P30518); assay: Binding to Membranes of Mouse Fibroblast Cell Line (LV-2) Transfected with the cDNA Expressing the Human V2 Vasopressin Receptor; conditions: V2 column, printed with one *, read-out: V2, % at concentration in brackets
T2 construct: expressed in transfected cells; host or cells: mouse fibroblast cell line LV-2
T2 sequence (P30518 whole entry): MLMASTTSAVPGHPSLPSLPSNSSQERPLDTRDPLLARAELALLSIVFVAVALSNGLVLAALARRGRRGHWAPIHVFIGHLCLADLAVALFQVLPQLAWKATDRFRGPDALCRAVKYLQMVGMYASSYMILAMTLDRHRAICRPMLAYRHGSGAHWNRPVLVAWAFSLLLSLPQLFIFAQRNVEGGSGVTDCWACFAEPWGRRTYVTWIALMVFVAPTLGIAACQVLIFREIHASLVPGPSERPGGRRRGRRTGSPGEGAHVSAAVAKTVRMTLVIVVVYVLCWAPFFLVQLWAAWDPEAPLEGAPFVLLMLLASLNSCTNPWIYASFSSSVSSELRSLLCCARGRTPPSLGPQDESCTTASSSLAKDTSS

[3] = target: T2, human V2 vasopressin receptor; assay: as above; conditions: for IC50: LV-2 cells
Method: Flasks of 175 ml capacity, containing attached cells grown to confluence, are cleared of culture medium by aspiration. The flasks containing the attached cells are rinsed with 2×5 ml of phosphate buffered saline (PBS) and the liquid aspirated off each time. Finally, 5 ml of an enzyme free dissociation Hank's based solution (Specialty Media, Inc., Lafayette, N.J.) is added and the flasks are left undisturbed for 2 min. The content of all flasks is poured into a centrifuge tube and the cells pelleted at 300×g for 15 min. The Hank's based solution is aspirated off and the cells homogenized with a polytron at setting #6 for 10 sec in 10.0 mM Tris.HCl buffer, pH 7.4 containing 0.25M sucrose and 1.0 mM EDTA. The homogenate is centrifuged at 1500×g for 10 min to remove ghost membranes. The supernatant fluid is centrifuged at 100,000×g for 60 min to pellet the receptor protein. Upon completion, the pellet is resuspended in a small volume of 50.0 mM Tris.HCl buffer, pH 7.4. The protein content is determined by the Lowry method and the receptor membranes are suspended in 50.0 mM Tris.HCl buffer containing 0.1 mM phenylmethylsulfonylfluoride (PMSF) and 0.2% bovine serum albumin (BSA) to give 2.5 mg receptor protein per ml of suspension.
For binding experiments, the following is added in μl volume to wells of a 96 well format of a microtiter plate: 100.0 μl of 100.0 mM Tris.HCl buffer containing 0.2% heat inactivated BSA, 10.0 mM MgCl2 and a mixture of protease inhibitors: leupeptin, 1.0 mg %; aprotinin, 1.0 mg %; 1,10-phenanthroline, 2.0 mg %; trypsin inhibitor, 10.0 mg % and 0.1 mM PMSF., 20.0 μl of [^3 H] Arginine^8, vasopressin (S.A. 75.0 Ci/mmole) at 0.8 nM and the reaction initiated by the addition of 80.0 μl of tissue membranes ([…]).
The plates are left undisturbed on the bench top for 120 min to reach equilibrium. Non specific binding is assessed in the presence of 1.0 μM of unlabeled ligand, added in 20 μl volume. For test compounds, these are solubilized in 50% dimethylsulfoxide (DMSO) and added in 20.0 μl volume to a final incubation volume of 200 μl. Upon completion of binding, the content of each well is filtered off, using a Brandel® cell Harvester (Gaithersburg, Md.). The radioactivity trapped on the filter disk by the ligand-receptor complex is assessed by liquid scintillation counting in a Packard LS Counter, with an efficiency of 65% for tritium.

[4] = system: vasopressin V2; assay: Vasopressin V2 Antagonist Activity in Conscious Hydrated Rats (diuretic effect); type: in vivo, normal Sprague-Dawley rats; conditions: 10 mg/kg orally, AVP 0.4 μg/kg i.p.
Summary of the method: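 Conscious rats were dosed orally at 0.1–100 mg/kg, and AVP 0.4 μg/kg i.p. in peanut oil followed 1 h later. Urine volume, osmolality and Na/K/Cl were compared against AVP-treated controls, with non-AVP rats as water-loading controls.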

[5] = system: vasopressin V1; assay: Vasopressin V1 Antagonist Activity in Conscious Rats (vasopressin vasopressor response); type: in vivo, rat (spontaneously hypertensive rats); conditions: 10 mg/kg i.v.
Summary of the method: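 Conscious rats had the ventral caudal tail artery cannulated into the lower abdominal aorta under local procaine anesthesia, plus a caudal vein cannula for intravenous dosing. Pulsatile blood pressure was recorded via a Statham P23Db transducer. Vasopressor responses to vasopressin injections were measured before and after compound dosing, with percent antagonism calculated relative to the pre-drug response taken as 100%.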

| Compound | inhibition at 10 µM ([1]; 1.5 h, 10 μM, human platelet (*), read-out: *V1, % at concentration in brackets) [%] | inhibition at 10 µM [2] [%] | IC50 [3] [nM] | IC50 [1] [nM] | inhibition at 1 µM ([3]; 1 μM, read-out: **V2, % at concentration in brackets) [%] | inhibition at 1 µM ([1]; 1.5 h, 1 μM, human platelet (*), read-out: *V1, % at concentration in brackets) [%] | Osmolality [4] [mOsm/kg] | Urine Volume [4] [ml/4 hrs.] | MAX % Inhibition [5] [%] | Time of max % inhibition [5] [min] |
| --- | --- | --- | --- | --- | --- | --- | --- | --- | --- | --- |
| Cc1ccccc1NC(=O)Nc1ccc(C(=O)N2Cc3ccccc3Cc3ccccc32)cc1 [Example 122, 6,11-Dihydro-5-[4-[[[(2-methylphenyl)amino]carbonyl]-amino]benzoyl]-5H-dibenz[b,e]azepine] | 95 | 92 | – | – | – | – | – | – | – | – |
| Cc1c(F)cccc1C(=O)Nc1ccc(C(=O)N2Cc3ccccc3Cc3ccccc32)c(Cl)c1 [Example 264, N-[4-[(6,11-Dihydro-5H-dibenz[b,e]azepin-5-yl)-carbonyl]-3-chlorophenyl]-2-methyl-3-fluorobenzamide] | – | – | 28 | 980 | – | – | 682 | 12 | – | – |
| O=C(O)Cn1cc2c(n1)-c1ccccc1N(C(=O)c1ccc(NC(=O)c3ccc(Cl)cc3Cl)cc1)CC2 [Example 451, 6-[4-[(2,4-Dichlorobenzoyl)amino]benzoyl]-5,6-dihydropyrazolo[4,3-d][1]benzazepine-2(4H)-acetic acid] | – | – | – | – | 69 | 35 | 989 | 5.3 | – | – |
| CCOC(=O)Cn1cc2c(n1)-c1ccccc1N(C(=O)c1ccc(NC(=O)c3ccc(Cl)cc3Cl)cc1)CC2 [Example 452, Ethyl 6-[4-[(2,4-dichlorobenzoyl)amino]benzoyl]-5,6-dihydropyrazolo[4,3-d][1]benzazepine-2(4H)-acetate] | – | – | 10 | 470 | – | – | 584 | 7.8 | – | – |

The next lines start with results.

| inhibition at 10 µM ([1]; 1.5 h, 10 μM, human platelet (*), read-out: *V1, % at concentration in brackets) [%] | inhibition at 10 µM [2] [%] | IC50 [3] [nM] | IC50 [1] [nM] | inhibition at 1 µM ([3]; 1 μM, read-out: **V2, % at concentration in brackets) [%] | inhibition at 1 µM ([1]; 1.5 h, 1 μM, human platelet (*), read-out: *V1, % at concentration in brackets) [%] | Compound | Osmolality [4] [mOsm/kg] | Urine Volume [4] [ml/4 hrs.] | MAX % Inhibition [5] [%] | Time of max % inhibition [5] [min] |
| --- | --- | --- | --- | --- | --- | --- | --- | --- | --- | --- |
| – | – | 9 | 36 | – | – | Cc1ccccc1C(=O)Nc1ccc(C(=O)N2Cc3ccsc3Cc3ccccc32)cc1 [Example 456, N-[4-[(4,10-Dihydro-5H-thieno[3,2-c][1]benzazepin-5-yl)carbonyl]phenyl]-2-methylbenzamide] | 1209 | 4.8 | – | – |
| – | – | 0.71 | 1.8 | – | – | Cc1ccccc1C(=O)Nc1ccc(C(=O)N2Cc3sccc3Cc3ccccc32)cc1 [Example 458] | 537 | 13.5 | 77 | 180 |
